Results as given in publication PMC7660650, “Chemical Starting Matter for HNF4α Ligand Discovery and Chemogenomics” (International Journal of Molecular Sciences, 2020).
Values joined by “and” are separate entries in the source; they are usually repeats but may differ in a detail not shown here. Identical values can stand only once.

Molecular target: T1, Gal4-HNF4α (human HNF4α LBD) (Homo sapiens, UniProt P41235)
T1 construct: uniprot entry: P41235-1, residues 142-377; expressed in transfected cells; host or cells: HEK293T
T1 sequence (P41235 142-377): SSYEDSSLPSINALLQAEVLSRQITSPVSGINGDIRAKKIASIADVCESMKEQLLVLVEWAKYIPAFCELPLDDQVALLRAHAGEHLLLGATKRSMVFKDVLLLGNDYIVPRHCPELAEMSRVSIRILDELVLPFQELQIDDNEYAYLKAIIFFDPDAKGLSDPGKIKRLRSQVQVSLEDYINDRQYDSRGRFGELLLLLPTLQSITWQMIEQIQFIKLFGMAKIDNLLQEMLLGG
Assay: Hybrid Gal4-HNF4α reporter gene assay in transiently transfected HEK293T cells
Format: cell-based
Conditions: Table S1, primary screening, 50 µM

SMILES | HNF4a-screening_activity_(mean_of_n=2)
CS(=O)(=O)c1ccc(N)cc1 [Prestw-Frag-1214, CS(=O)(=O)c1ccc(N)cc1] | 1.202
CCCCOc1cc(C(=O)NC)c2ccccc2n1 [Prestw-Frag-1228, CCCCOc1cc(C(=O)NC)c2ccccc2n1] | 0.8368 and 0.967
COc1cccc2c1CCCC2=O [Prestw-Frag-1236, COc1cccc2C(=O)CCCc12] | 1.287
Oc1ccc(-c2ccc(F)cc2F)cc1 [Prestw-Frag-1237, Oc1ccc(cc1)-c1ccc(F)cc1F] | 0.9944
O=C(O)c1cccc(-c2ccc(F)cc2F)c1 [Prestw-Frag-1238, OC(=O)c1cccc(c1)-c1ccc(F)cc1F] | 1.01
O=C(O)c1cc(-c2ccc(F)cc2)ccc1O [Prestw-Frag-1239, OC(=O)c1cc(ccc1O)-c1ccc(F)cc1] | 1.018 and 1.049
CC(C)C1NCCc2c1[nH]c1ccccc21 (stereo not drawn) [Prestw-Frag-1264, CC(C)C1NCCc2c1[nH]c1ccccc21] | 1.008
NC1=NCCN1 [Prestw-Frag-1268, NC1=NCCN1] | 1.024
COc1cc2c(cc1OC)C(C)N(C)CC2 (stereo not drawn) [Prestw-Frag-1273, COc1cc2CCN(C)C(C)c2cc1OC] | 1.056 and 0.9179
COc1cc2c(cc1OC)CN(C)CC2 [Prestw-Frag-1275, COc1cc2CCN(C)Cc2cc1OC] | 0.9717 and 0.8575
COc1cc2c(cc1OC)CNCC2 [Prestw-Frag-1276, COc1cc2CCNCc2cc1OC] | 1.117
OCc1cc2ccccc2[nH]1 [Prestw-Frag-1297, OCc1cc2ccccc2[nH]1] | 1.241
CCc1cccc2c(CCO)c[nH]c12 [Prestw-Frag-1299, CCc1cccc2c(CCO)c[nH]c12] | 1.255
OCCn1ccnc1 [Prestw-Frag-1303, OCCn1ccnc1] | 0.8061 and 1.219
C[C@H]1NC(=O)NC1=O [Prestw-Frag-1311, C[C@H]1NC(=O)NC1=O] | 1.09
COc1ccc(C(=O)O)cc1N1CCCC1 [Prestw-Frag-1313, COc1ccc(cc1N1CCCC1)C(O)=O] | 1.093
O=C(O)c1ccccc1Nc1cccc(Cl)c1 [Prestw-Frag-1319, OC(=O)c1ccccc1Nc1cccc(Cl)c1] | 0.64
Cc1cccc(Nc2ccccc2C(=O)O)c1 [Prestw-Frag-1320, Cc1cccc(Nc2ccccc2C(O)=O)c1] | 0.7946 and 1.022
Nc1cccc(C(F)(F)F)c1 [Prestw-Frag-1322, Nc1cccc(c1)C(F)(F)F] | 0.9015
Fc1ccc(C(c2ccc(F)cc2)N2CCNCC2)cc1 [Prestw-Frag-1323, Fc1ccc(cc1)C(N1CCNCC1)c1ccc(F)cc1] | 1.017 and 1.002
CN1CCN(C(c2ccccc2)c2ccccc2)CC1 [Prestw-Frag-1325, CN1CCN(CC1)C(c1ccccc1)c1ccccc1] | 0.9831

SMILES | HNF4a-screening_activity_(mean_of_n=2)
COc1ccccc1OCCCO [Prestw-Frag-1335, COc1ccccc1OCCCO] | 0.806 and 0.9658
OCC(O)COc1ccccc1 (stereo not drawn) [Prestw-Frag-1337, OCC(O)COc1ccccc1] | 0.9566
COc1ccccc1OCCO [Prestw-Frag-1338, COc1ccccc1OCCO] | 0.8769 and 0.9665
CCC(C(=O)OCCN(CC)CC)c1ccccc1 (stereo not drawn) [Prestw-Frag-1343, CCC(C(=O)OCCN(CC)CC)c1ccccc1] | 0.9028 and 1.004
CCN(CC)CCOc1ccccc1O [Prestw-Frag-1345, CCN(CC)CCOc1ccccc1O] | 0.7766 and 1.111
OC(c1ccc(Cl)cc1)c1ccccn1 (stereo not drawn) [Prestw-Frag-1346, OC(c1ccc(Cl)cc1)c1ccccn1] | 0.8912
CCOC(=O)C1c2ccccc2Oc2ccccc21 [Prestw-Frag-1348, CCOC(=O)C1c2ccccc2Oc2ccccc12] | 0.8228
CNC(=O)c1cnc(C)cn1 [Prestw-Frag-1350, CNC(=O)c1cnc(C)cn1] | 0.7205 and 0.8855
CNCCc1c[nH]c2ccccc12 [Prestw-Frag-1356, CNCCc1c[nH]c2ccccc12] | 0.7184 and 0.9553
COc1ccc(CNc2ncccn2)cc1 [Prestw-Frag-1358, COc1ccc(CNc2ncccn2)cc1] | 0.8945 and 1.199
O=C1COc2ccccc21 [Prestw-Frag-1361, O=C1COc2ccccc12] | 1.58
OC1(c2ccc(Cl)cc2)CCNCC1 [Prestw-Frag-1365, OC1(CCNCC1)c1ccc(Cl)cc1] | 0.8125
CCCC(=O)c1ccc(F)cc1 [Prestw-Frag-1368, CCCC(=O)c1ccc(F)cc1] | 1.103
COc1ccc2cc[nH]c2c1 [Prestw-Frag-1372, COc1ccc2cc[nH]c2c1] | 1.02
Oc1ccc2cc[nH]c2c1 [Prestw-Frag-1374, Oc1ccc2cc[nH]c2c1] | 1.128
O=C(OC1CCCCC1)c1ccccc1O [Prestw-Frag-1382, Oc1ccccc1C(=O)OC1CCCCC1] | 0.9579 and 1.189
NCC(O)COc1cccc2ccccc12 (stereo not drawn) [Prestw-Frag-1389, NCC(O)COc1cccc2ccccc12] | 0.8528 and 1.218
NS(=O)(=O)c1ccccc1C(F)(F)F [Prestw-Frag-1394, NS(=O)(=O)c1ccccc1C(F)(F)F] | 0.846
c1cc2c(cc1CN1CCNCC1)OCO2 [Prestw-Frag-1397, C(N1CCNCC1)c1ccc2OCOc2c1] | 1.012
c1cnc(N2CCNCC2)nc1 [Prestw-Frag-1398, C1CN(CCN1)c1ncccn1] | 1.074 and 0.9138
COC(=O)C(CO)c1ccccc1 (stereo not drawn) [Prestw-Frag-1406, COC(=O)C(CO)c1ccccc1] | 0.9811 and 0.9479

SMILES | HNF4a-screening_activity_(mean_of_n=2)
Cc1c[nH]nc1C [Prestw-Frag-1408, Cc1c[nH]nc1C] | 1.108
NNC(=O)c1ccncc1 [Prestw-Frag-1419, NNC(=O)c1ccncc1] | 0.9909
NNC(=O)c1ccccc1 [Prestw-Frag-1420, NNC(=O)c1ccccc1] | 1.278
c1cnc2[nH]ncc2c1 [Prestw-Frag-1428, c1n[nH]c2ncccc12] | 1.325
NC(=O)c1ccccc1O [Prestw-Frag-1439, NC(=O)c1ccccc1O] | 1.146
c1ccc(-c2ccccc2-c2nnn[nH]2)cc1 [Prestw-Frag-1441, c1ccc(cc1)-c1ccccc1-c1nnn[nH]1] | 1.051 and 0.7815
c1ccc(CC2NCCc3ccccc32)cc1 (stereo not drawn) [Prestw-Frag-1444, C(C1NCCc2ccccc12)c1ccccc1] | 1.349
COc1ccc(CCN(C)C)cc1OC [Prestw-Frag-1445, COc1ccc(CCN(C)C)cc1OC] | 1.047 and 0.984
CNCCc1ccc(OC)c(OC)c1 [Prestw-Frag-1446, CNCCc1ccc(OC)c(OC)c1] | 1.187 and 1.106
CCN(CC)Cc1cc(N)ccc1O [Prestw-Frag-1462, CCN(CC)Cc1cc(N)ccc1O] | 1.135
c1ccc(CNc2ccccn2)cc1 [Prestw-Frag-1475, C(Nc1ccccn1)c1ccccc1] | 1.278
CN(C)CCNCc1ccccc1 [Prestw-Frag-1476, CN(C)CCNCc1ccccc1] | 1.113
CC(=O)NCCc1c[nH]c2ccccc12 [Prestw-Frag-1478, CC(=O)NCCc1c[nH]c2ccccc12] | 1.089
COc1ccc2[nH]cc(CCN)c2c1 [Prestw-Frag-1480, COc1ccc2[nH]cc(CCN)c2c1] | 1.025 and 1.119
Nc1c(Cl)ccc2nsnc12 [Prestw-Frag-1492, Nc1c(Cl)ccc2nsnc12] | 1.089
Cc1cnc(C(=O)O)cn1 [Prestw-Frag-1494, Cc1cnc(cn1)C(O)=O] | 0.7971 and 1.166
O=C(O)c1cnccn1 [Prestw-Frag-1495, OC(=O)c1cnccn1] | 1.013
O=C(O)CC[C@H](NC(=O)c1ccccc1)C(=O)O [Prestw-Frag-1499, OC(=O)CC[C@H](NC(=O)c1ccccc1)C(O)=O] | 1.11
COc1cc(C)cc(C)c1C [Prestw-Frag-1506, COc1cc(C)cc(C)c1C] | 1.143
Cc1nccn1CCO [Prestw-Frag-1517, Cc1nccn1CCO] | 0.9796 and 1.002
CNCC(c1ccc(OC)cc1)C1(O)CCCCC1 (stereo not drawn) [Prestw-Frag-1523, CNCC(c1ccc(OC)cc1)C1(O)CCCCC1] | 1.103 and 1.105
